Tested on: Diabetic ZDF male rats
Assay: In vivo animal model to mimic human night time dosing
Design: species or system rat
Conditions: 30 mg/kg po via gavage in 10% Gelucire 44/14; 360 min after dosing at 14 weeks old, from start of dosing (T=0); p=0.019 versus vehicle controls
Protocol: Diabetic ZDF male rats (Charles River) were allowed free access to tap water and enriched pelleted chow diet (M-Z Ereich; Art. No. V1185-000; Ssniff R Spezialdiäten GmbH, D-59494, Soest Germany) ad-libitum for 4 weeks until they were 8 weeks old. The animals were housed under a 16 hr/8 hr:dark/light phase (lights on 09:00). As the animals progressed to the diabetic state, weekly blood glucose and insulin measurement were made at the end of the light period (17:00 h) and a blood glucose measurement made at the end of the active (dark) cycle (08:30-09:00 h). When the animals had reached 8 weeks of age, they were trained on a meal paradigm, by removal of food during the light period (09:00-17:00 h), which was maintained for the remainder of the study. After the animals had reached 12 weeks of age, and their diabetic status had been confirmed using the fasted glucose measurements (>8 mM), the animals were divided into groups. […] Blood glucose and insulin concentrations were measured by the glucose oxidase method (Super G Glucose analyzer; Dr. Müller Gerätebau, Freital, Germany) and Elisa technique, respectively, at T=−45 min, before dosing (08:15 h) and then at T=0 min ([…]), T=45 min (09:45 h), T=90 min (10:30 h), T=150 min (11:20 h) and T=360 min (15:00 h) after each weekly successive test compound dose.

O=C(N[C@@H](Cc1ccc(F)cc1)C(=O)N1CCC(O)CC1)c1cc2cc(Cl)ncc2[nH]1 [Example 3, 5-chloro-1H-pyrrolo[2,3-c]pyridine-2-carboxylic acid [1-(S)-(4-fluorobenzyl)-2-(4-hydroxypiperidin-1-yl)-2-oxoethyl]amide]
reduction in blood glucose concentration (mean+/−S.D.): 6.28 ± 2.47 mM

Reference: patent US20090298745A1, “Treatment of Diabetes with Glycogen Phosphorylase Inhibitors” (priority 2004, published 2009)
